Source: US20070078207A1, “Stabilizer cyanoacrylate formulations” (priority 2005, published 2007)

Test system: L5178Y TK^±
Test: Mouse lymphoma screening study, mutation assay without activation (protocol 431ICH1 edition 3)
Type: cell-based
Method: In order to determine mutagenic activity for cyanoacrylate compositions containing hydroquinone, a mouse lymphoma screening study was conducted according to methods known in the art. The assay protocol used was 431ICH1 edition 3 (L5178Y TK^±) and was conducted by Covance, Inc. The amount of radical stabilizer in each of the cyanoacrylate compositions was varied. The selective agent was 3.0 μg/ml 5-trifluorothymidine (TFT).

Oc1ccc(O)cc1 [HQ in saline, hydroquinone]
mutagenic activity (result in words, mutagenic activity defined as 124.1×10E-6 units): does not exhibit mutagenicity
Cumulative RSG (without activation, Relative to Vehicle Control (%)): 2.0%
Daily Cell Counts Day 2 (without activation, footnote g = not subcultured): 0.9^g Cell/ML, 10E5 units
Daily Cell Counts Day 1 (without activation, selective agent 3.0 μg/ml TFT): 0.5 Cell/ML, 10E5 units
